Measured values taken from publication PMC12365235, “Molecular mechanisms of thiazide-like diuretics-mediated inhibition of the human Na-Cl cotransporter” (Nature Communications, 2025).

Target: T1, hNCC(N227A) (Homo sapiens, UniProt P55017, N227A)
T1 construct: expressed in transfected cells
T1 sequence (P55017 1-1021 N227A): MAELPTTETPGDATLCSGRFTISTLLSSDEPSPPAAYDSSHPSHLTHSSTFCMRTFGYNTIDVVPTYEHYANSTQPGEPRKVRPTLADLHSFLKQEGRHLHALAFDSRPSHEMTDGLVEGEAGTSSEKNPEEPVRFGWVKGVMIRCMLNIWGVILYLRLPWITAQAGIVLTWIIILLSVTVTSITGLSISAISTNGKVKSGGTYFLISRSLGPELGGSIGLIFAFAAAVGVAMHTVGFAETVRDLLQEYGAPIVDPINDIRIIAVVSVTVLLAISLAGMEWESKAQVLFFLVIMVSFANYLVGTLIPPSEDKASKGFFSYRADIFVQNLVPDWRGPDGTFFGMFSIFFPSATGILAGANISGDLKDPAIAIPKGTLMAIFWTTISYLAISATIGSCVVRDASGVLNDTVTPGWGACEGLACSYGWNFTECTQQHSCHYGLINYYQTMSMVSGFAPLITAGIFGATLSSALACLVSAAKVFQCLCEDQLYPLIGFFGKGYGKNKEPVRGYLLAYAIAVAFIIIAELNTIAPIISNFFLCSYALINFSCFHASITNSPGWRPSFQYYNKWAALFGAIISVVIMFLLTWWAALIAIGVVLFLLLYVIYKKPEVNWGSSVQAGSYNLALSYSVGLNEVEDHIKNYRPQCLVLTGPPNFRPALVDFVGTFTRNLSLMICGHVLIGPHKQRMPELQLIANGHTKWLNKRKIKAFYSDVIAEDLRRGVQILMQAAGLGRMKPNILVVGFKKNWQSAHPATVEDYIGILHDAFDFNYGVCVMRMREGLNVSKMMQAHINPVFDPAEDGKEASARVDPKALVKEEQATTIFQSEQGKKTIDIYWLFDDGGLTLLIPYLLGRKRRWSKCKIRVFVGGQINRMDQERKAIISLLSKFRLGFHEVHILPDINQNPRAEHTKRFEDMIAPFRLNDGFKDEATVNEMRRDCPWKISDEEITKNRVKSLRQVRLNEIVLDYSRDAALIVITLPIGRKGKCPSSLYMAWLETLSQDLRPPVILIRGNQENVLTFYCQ
Assay: 125I- uptake assay, hNCC(N227A) variant
Format: cell-based
Details: for increase in IC50 relative to hNCC(WT) / IC50: N227A substitution; for IC50: iodide uptake
Experimental: HEK293S cell lines, cultured in 293 Freestyle medium (Life Technologies; plus 10% fetal bovine serum), stably expressing hNCC and its variants were generated following published protocols. Cells were transfected using Lipofectamine 3000 (Invitrogen) with a pSBbi-RP-based plasmid containing hNCC or its variants and the SB100X vector. Puromycin (2 μg/mL; Gemini Bio-Products) was used for selection of stable cell lines.
To prepare for the uptake experiment, cells were plated at 0.5 × 10^6 cells/well in 24-well plates one day in advance. To activate NCC, cells were treated with a chloride-free hypotonic solution composed of 67.5 mM sodium-, 2.5 mM potassium-, 0.25 mM magnesium-, and 0.25 mM calcium-gluconate, as well as 7.5 mM HEPES pH 7.4 (buffered using Tris) at 37 °C for 10 min[72]. After the activation step, the experiments were carried out at room temperature. Ten minutes before the start of ^125I^− uptake, 70 μM Bumetanide (Thermo Scientific Chemicals) and 100 μM 4,4′-diisothiocyanatostilbene-2,2′-disulfonic acid (DIDS; Sigma) were added to suppress background iodide uptake activity. Indicated thiazide diuretics were also added to the indicated concentrations 10 min before the start of ^125I^− uptake. The original buffer was switched to an uptake buffer composed of 135 mM Na-gluconate, 5 mM K-gluconate, 1 mM Mg-gluconate, 1 mM Ca-gluconate, 70 μM bumetanide, 100 μM DIDS, 1 mM NaI, 0.25 μCi/ml Na^125I (American Radiolabeled Chemicals, Inc.), and 15 mM HEPES pH 7.4 (buffered using Tris), in the presence or absence of thiazide diuretics to initiate ^125I^− uptake. The ^125I^− uptake process lasted 1 h and was stopped by two rapid washes using ice-cold 110 mM MgCl2. Cells lysed using 1% sodium dodecyl sulfate (SDS) were analyzed by scintillation counting.
To calculate the fold change of the half-maximal inhibitory concentration (IC50) between hNCC(WT) and different hNCC variants, individual dose-response curves were normalized first using the smallest mean and the value of the lowest concentration as 0% and 100%, respectively. The normalized data were then fitted using the “EC50 shift” nonlinear regression in GraphPad Prism 10 with the shared EC50Control assigned to be the IC50 of hNCC(WT). The following constraints were used in the EC50 shift analysis. The EC50Control was set to be shared across all curves under analysis and constrained to be greater than 0. The EC50Ratio was constrained to be greater than 0. The bottom, top, and HillSlope were constrained to be 0, 100, and −1, respectively. For Fig. 1f, g and Supplementary Fig. 2d, GraphPad Prism 10 was used to perform curve fitting and IC50 calculation for normalized data using y = 100/(1 + (x/IC50)).

Row | Compound | increase in IC50 relative to hNCC(WT) | IC50 [µM] | effect of N227A substitution on potency relative to its effect on polythiazide (N227A, polythiazide sensitivities from ref 36)
1 | NS(=O)(=O)c1cc(C2(O)NC(=O)c3ccccc32)ccc1Cl (centres unmarked) [chlorthalidone] | > 1000 fold | 59 | –
2 | CC1Cc2ccccc2N1NC(=O)c1ccc(Cl)c(S(N)(=O)=O)c1 (centres unmarked) [indapamide] | over 10,000 fold | 620 | over 50 fold
